We go through nine compounds from patent US20080194524A1, “Compounds For the Inhibition of Undesired Cell Proliferation and Use Thereof” (JERINI AG, priority 2003, published 2008).

Sequence of hPin1 (Protein interacting with NIMA (-kinase)) (Q13526 whole entry): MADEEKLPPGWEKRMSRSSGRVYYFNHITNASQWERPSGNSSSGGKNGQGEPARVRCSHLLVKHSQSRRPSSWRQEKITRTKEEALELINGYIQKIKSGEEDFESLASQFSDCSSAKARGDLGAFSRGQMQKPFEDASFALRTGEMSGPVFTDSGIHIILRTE

The first assay has as its target hPin1 (Protein interacting with NIMA (-kinase)) (Homo sapiens, UniProt Q13526). The assay can be described thus: protease-coupled PPIase assay, hPin1. The class given is biochemical.
Conditions: not given
A word on the IC50: it is the point on the concentration scale where inhibition reaches its midpoint. With `NC(=O)[C@H](Cc1ccc2ccccc2c1)NC(=O)[C@@H]1CCCCN1C(=O)[C@H](CSCP(=O)(O)O)NC(=O)C1CSC(=O)N1` (stereo partly drawn) [Compound 12, {3-[2-(1-Carbamoyl-2-naphthalen-2-yl-ethylcarbamoyl)-piperidin-1-yl]-3-oxo-2-[(2-oxo-thiazolidine-4-carbonyl)-amino]-propylsulfanylmethyl}-phosphonicacid], the 50% inhibitory concentration (IC50) was < 1000 nM.

The same assay, now with this note: hPin1 6 nM; substrate Ac-Ala-Ala-Ser(PO3H2)-Pro-Arg-pNA, trypsin; 35 mM HEPES pH 7.8, 6° C.; read-out: Specificity of the inhibition with rotamases, Target T-1 (IC50 class).
Consider `NC(=O)[C@H](Cc1ccc2ccccc2c1)NC(=O)[C@@H]1CCCCN1C(=O)[C@H](CSCP(=O)(O)O)NC(=O)c1cc2ccccc2o1` [Compound 40, {2-[(Benzofuran-2-carbonyl)-amino]-3-[2-(1-carbamoyl-2-naphthalen-2-yl-ethylcarbamoyl)-piperidin-1-yl]-3-oxo-propylsulfanylmethyl}-phosphonicacid], for which the IC50 was in the range of 1000 to 10000 nM.
On to `NC(=O)[C@H](Cc1ccc2ccccc2c1)NC(=O)[C@@H]1CCCCN1C(=O)[C@H](CSCP(=O)(O)O)NS(=O)(=O)c1cccs1` [Compound 53, [3-[2-(1-Carbamoyl-2-naphthalen-2-yl-ethylcarbamoyl)-piperidin-1-yl]-3-oxo-2-(thiophene-2-sulfonylamino)propylsulfanyl-methyl]-phosphonic acid], for which the concentration for half-maximal inhibition (IC50) is < 1000 nM.
Take `CC(C)(C)NC(=O)[C@H](Cc1ccc2ccccc2c1)NC(=O)[C@@H]1CCCCN1CCSCP(=O)(O)O` [Compound 71, {2-[2-(1-tert-Butylcarbamoyl-2-naphthalen-2-yl-ethylcarbamoyl)-piperidin-1-yl]-ethylsulfanylmethyl}-phosphonicacid]: the IC50 was < 1000 nM.
The same measure, in the same setting: as for `NC(=O)[C@H](Cc1ccc2ccccc2c1)NC(=O)[C@@H]1CCCCN1C(=O)CSCP(=O)(O)O` [Compound 28, {2-[2-(1-Carbamoyl-2-naphthalen-2-yl-ethylcarbamoyl)-piperidin-1-yl]-2-oxo-ethylsulfanylmethyl}-phosphonic acid], the figure is < 1000 nM; as for `CC(C)COC(=O)N[C@@H](CSCP(=O)(O)O)C(=O)N1CCCC[C@H]1C(=O)N[C@@H](Cc1ccc2ccccc2c1)C(N)=O` [Compound 43, {3-[2-(1-Carbamoyl-2-naphthalen-2-yl-ethylcarbamoyl)-piperidin-1-yl]-2-isobutoxycarbonylamino-3-oxo-propylsulfanylmethyl}-phosphonic acid], 1000 to 10000 nM.
For `NC(=O)[C@H](Cc1ccc2ccccc2c1)NC(=O)[C@@H]1CCCCN1C(=O)[C@H](CSCP(=O)(O)O)NC(=O)CCCC(=O)c1ccc(Cl)cc1` [Compound 7, {3-[2-(1-Carbamoyl-2-naphthalen-2-yl-ethylcarbamoyl)-piperidin-1-yl]-2-[5-(4-chloro-phenyl)-5-oxo-pentanoylamino]-3-oxo-propylsulfanylmethyl}-phosphonicacid], the IC50 was < 1000 nM.
As to `NC(=O)[C@H](Cc1ccc2ccccc2c1)NC(=O)[C@@H]1CCCCN1C(=O)[C@H](CSCP(=O)(O)O)NC(=O)Cc1ccccc1` [Compound 21, {3-[2-(1-Carbamoyl-2-naphthalen-2-yl-ethylcarbamoyl)-piperidin-1-yl]-3-oxo-2-phenylacetylamino-propylsulfanylmethyl}-phosphonicacid], the concentration for half-maximal inhibition (IC50) was < 1000 nM.
Turning to `CC(=O)N[C@@H](Cc1csc2ccccc12)C(=O)N[C@@H](CSCP(=O)(O)O)C(=O)N(C)N(C)C(=O)N[C@@H](Cc1ccc2ccccc2c1)C(N)=O` [Compound 26, Ac-Bta-Cys(CH2—P(O)(OH)2)-NMeazaAla-2Nal-NH2], the IC50 was < 1000 nM.
